Assay results reported in PubChem BioAssay AID248 (DTP/NCI, 2004).
Values joined by “and” are separate entries in the source; they are usually repeats but may differ in a detail not shown here. Equal entries are not always repeated. Inconclusive results and toxic doses are left out. No stated cut-off is given here; in the data, active means T/C of 150% or more; inactive means T/C below 125%.

System: L1210 leukemia ip in BDF1 mice, survival T/C
Assay: NCI In Vivo Anticancer Drug Screen. Data for tumor model L1210 Leukemia (intraperitoneal) in B6D2F1 (BDF1) mice
Settings: endpoint: mean survival time, higher = longer survival
Summary of the method: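 Tumor was transplanted into mice, which were then dosed with test compound or vehicle alone. Survival was recorded for each group, and the treated figure was expressed relative to the control figure.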

[1] = dose: 6.25 mg/kg/injection, schedule: Q01DX009 (ip), vehicle: Klucel (hydroxypropylcellulose) (HPC)
[2] = dose: 12.5 mg/kg/injection, schedule: Q01DX009 (ip), vehicle: Klucel (hydroxypropylcellulose) (HPC)
[3] = dose: 25.0 mg/kg/injection, schedule: Q01DX009 (ip), vehicle: Klucel (hydroxypropylcellulose) (HPC)
[4] = dose: 100.0 mg/kg/injection, schedule: Q04DX003 (ip), vehicle: Klucel (hydroxypropylcellulose) (HPC)
[5] = dose: 200.0 mg/kg/injection, schedule: Q04DX003 (ip), vehicle: Klucel (hydroxypropylcellulose) (HPC)
[6] = dose: 400.0 mg/kg/injection, schedule: Q04DX003 (ip), vehicle: Klucel (hydroxypropylcellulose) (HPC)
[7] = dose: 100.0 mg/kg/injection, schedule: Q04DX003 (ip), vehicle: saline with Tween-80
[8] = dose: 200.0 mg/kg/injection, schedule: Q04DX003 (ip), vehicle: saline with Tween-80
[9] = dose: 400.0 mg/kg/injection, schedule: Q04DX003 (ip), vehicle: saline with Tween-80
[10] = dose: 100.0 mg/kg/injection, schedule: Q01DX009 (ip), vehicle: Klucel (hydroxypropylcellulose) (HPC)
[11] = dose: 200.0 mg/kg/injection, schedule: Q01DX009 (ip), vehicle: Klucel (hydroxypropylcellulose) (HPC)
[12] = dose: 400.0 mg/kg/injection, schedule: Q01DX009 (ip), vehicle: Klucel (hydroxypropylcellulose) (HPC)
[13] = dose: 100.0 mg/kg/injection, schedule: Q01DX009 (ip), vehicle: saline with Tween-80
[14] = dose: 200.0 mg/kg/injection, schedule: Q01DX009 (ip), vehicle: saline with Tween-80
[15] = dose: 400.0 mg/kg/injection, schedule: Q01DX009 (ip), vehicle: saline with Tween-80
[16] = dose: 100.0 mg/kg/injection, schedule: Q04DX003 (ip), vehicle: saline
[17] = dose: 100.0 mg/kg/injection, schedule: Q01DX009 (ip), vehicle: saline

Measured: T/C

[N-]=Cc1c(O)cccc1Cl.[N-]=Cc1cc(Cl)ccc1O.[Ni+2]
inactive: [1] 96 % of control | [2] 93 % of control | [3] 95 % of control | [4] 97 % of control | [5] 87 % of control | [6] 86 % of control

CCCCCCCCCCC(=O)N1CCOCC1
inactive: dose: 12.5 mg/kg/injection, schedule: Q04DX003 (ip), vehicle: saline with Tween-80 98 % of control | dose: 25.0 mg/kg/injection, schedule: Q04DX003 (ip), vehicle: saline with Tween-80 95 % of control | dose: 50.0 mg/kg/injection, schedule: Q04DX003 (ip), vehicle: saline with Tween-80 101 % of control

CC(=O)OC1C=CN(C(C)=O)C(SC23CC4CC(CC(C4)C2)C3)C1OC(C)=O (stereo unspecified)
inactive: [4] 92 % of control | [5] 100 % of control | [6] 92 % of control

c1ccc2c(c1)NC1CCN2C1 (stereo unspecified)
inactive: [7] 109 % of control | [8] 103 % of control | [9] 97 % of control

CC(C)CC(N)C(=O)CCl (stereo unspecified)
inactive: dose: 25.0 mg/kg/injection, schedule: Q04DX002 (ip), vehicle: Klucel (hydroxypropylcellulose) (HPC) 108 % of control | dose: 50.0 mg/kg/injection, schedule: Q04DX002 (ip), vehicle: Klucel (hydroxypropylcellulose) (HPC) 102 % of control

Cc1nc2cc(Cl)cc([N+](=O)[O-])c2nc1C
inactive: [10] 91 % of control | [11] 93 % of control | [12] 91 % of control

O=C(Nc1ccc(C2=NCCN2)cc1)c1cc(C(=O)Nc2ccc(C3=NCCN3)cc2)cc(C(=O)Nc2ccc(C3=NCCN3)cc2)c1
inactive: dose: 4.3 mg/kg/injection, schedule: Q01DX Z (ip), vehicle: saline 95 % of control | dose: 6.4 mg/kg/injection, schedule: Q01DX Z (ip), vehicle: saline 93 % of control | dose: 9.7 mg/kg/injection, schedule: Q01DX Z (ip), vehicle: saline 97 % of control and 92 % of control | dose: 15.0 mg/kg/injection, schedule: Q01DX Z (ip), vehicle: saline 92 % of control | dose: 22.0 mg/kg/injection, schedule: Q01DX Z (ip), vehicle: saline 88 % of control | dose: 33.0 mg/kg/injection, schedule: Q01DX Z (ip), vehicle: saline 97 % of control | dose: 111.0 mg/kg/injection, schedule: Q01DX Z (ip), vehicle: saline 93 % of control | dose: 166.0 mg/kg/injection, schedule: Q01DX Z (ip), vehicle: saline 90 % of control | dose: 250.0 mg/kg/injection, schedule: Q01DX Z (ip), vehicle: saline 87 % of control | dose: 375.0 mg/kg/injection, schedule: Q01DX Z (ip), vehicle: saline 88 % of control

Nc1c(Br)cc2c(c1Br)Cc1cc([N+](=O)[O-])ccc1-2
inactive: [7] 104 % of control | [8] 103 % of control | [9] 98 % of control

Cc1cc(C)c2c(c1)CCc1cc(C)cc(C)c1-2
inactive: [10] 100 % of control | [4] 93 % of control | [11] 93 % of control | [5] 93 % of control | [12] 100 % of control | [6] 93 % of control

CCCC1(CCC)NC(=O)N(CC(=O)OCC)C1=O
inactive: [13] 94 % of control | [14] 96 % of control | [15] 102 % of control

Cc1cc(C)cc(OC(=O)/C=C/C(=O)Oc2cc(C)cc(C)c2)c1
inactive: [13] 105 % of control | [14] 100 % of control | [15] 102 % of control

O=P(O)(CCP(=O)(O)c1ccccc1)c1ccccc1
inactive: dose: 100.0 mg/kg/injection, schedule: Q04DX002 (ip), vehicle: Klucel (hydroxypropylcellulose) (HPC) 95 % of control | dose: 200.0 mg/kg/injection, schedule: Q04DX002 (ip), vehicle: Klucel (hydroxypropylcellulose) (HPC) 91 % of control | dose: 400.0 mg/kg/injection, schedule: Q04DX002 (ip), vehicle: Klucel (hydroxypropylcellulose) (HPC) 106 % of control

O/N=C1\c2ccccc2-c2cc(Cl)ccc21
inactive: dose: 100.0 mg/kg/injection, schedule: Q01DX001 (ip), vehicle: carboxymethylcellulose (CMC) 94 % of control | dose: 200.0 mg/kg/injection, schedule: Q01DX001 (ip), vehicle: carboxymethylcellulose (CMC) 109 % of control | dose: 400.0 mg/kg/injection, schedule: Q01DX001 (ip), vehicle: carboxymethylcellulose (CMC) 103 % of control

Cc1c2cnccc2c(C)c2c1c1ccccc1n2CC1CO1 (stereo unspecified)
inactive: dose: 0.78 mg/kg/injection, schedule: Q01DX009 (ip), vehicle: Klucel (hydroxypropylcellulose) (HPC) 90 % of control | dose: 1.56 mg/kg/injection, schedule: Q01DX009 (ip), vehicle: Klucel (hydroxypropylcellulose) (HPC) 97 % of control | dose: 1.56 mg/kg/injection, schedule: Q01DX009 (ip), vehicle: saline with Tween-80 113 % of control | dose: 3.12 mg/kg/injection, schedule: Q01DX009 (ip), vehicle: Klucel (hydroxypropylcellulose) (HPC) 100 % of control | dose: 3.13 mg/kg/injection, schedule: Q01DX009 (ip), vehicle: saline with Tween-80 110 % of control | dose: 4.12 mg/kg/injection, schedule: Q01DX009 (ip), vehicle: Klucel (hydroxypropylcellulose) (HPC) 120 % of control | [1] 94 % of control and 122 % of control | dose: 6.25 mg/kg/injection, schedule: Q01DX009 (ip), vehicle: saline with Tween-80 113 % of control | dose: 6.25 mg/kg/injection, schedule: Q04DX003 (ip), vehicle: saline 110 % of control | [2] 113 % of control | dose: 12.5 mg/kg/injection, schedule: Q01DX009 (ip), vehicle: saline with Tween-80 120 % of control | [3] 119 % of control and 86 % of control | dose: 25.0 mg/kg/injection, schedule: Q04DX003 (ip), vehicle: saline 123 % of control | dose: 65.0 mg/kg/injection, schedule: Q04DX003 (ip), vehicle: saline 108 % of control and 117 % of control | [16] 104 % of control and 114 % of control | dose: 150.0 mg/kg/injection, schedule: Q04DX003 (ip), vehicle: saline 108 % of control

CN(C)CCC(=O)O
inactive: [17] 92 % of control | dose: 100.0 mg/kg/injection, schedule: Q04DX003 (ip), vehicle: saline sonified 108 % of control | dose: 200.0 mg/kg/injection, schedule: Q01DX009 (ip), vehicle: saline 97 % of control | dose: 200.0 mg/kg/injection, schedule: Q04DX003 (ip), vehicle: saline sonified 105 % of control | dose: 400.0 mg/kg/injection, schedule: Q01DX009 (ip), vehicle: saline 94 % of control | dose: 400.0 mg/kg/injection, schedule: Q04DX003 (ip), vehicle: saline sonified 95 % of control

NNC(=O)CNc1ccc(F)c(Cl)c1
inactive: dose: 25.0 mg/kg/injection, schedule: Q04DX002 (ip), vehicle: saline + alcohol 113 % of control | dose: 50.0 mg/kg/injection, schedule: Q04DX002 (ip), vehicle: saline + alcohol 95 % of control | dose: 100.0 mg/kg/injection, schedule: Q04DX002 (ip), vehicle: saline + alcohol 98 % of control and 123 % of control

CC(=O)OC1(C(C)=O)CCC2C3CC(C)(O)C4=CC(=O)CCC4(C)C3CCC21C (stereo unspecified)
inactive: [3] 97 % of control | dose: 50.0 mg/kg/injection, schedule: Q01DX009 (ip), vehicle: Klucel (hydroxypropylcellulose) (HPC) 95 % of control | [10] 103 % of control | [11] 101 % of control

CCN(CC)CCCC(C)Nc1ccnc2cc(Cl)ccc12 (stereo unspecified)
inactive: dose: 25.0 mg/kg/injection, schedule: Q01DX001 (ip), vehicle: saline 103 % of control | dose: 25.0 mg/kg/injection, schedule: Q01DX009 (ip), vehicle: saline 100 % of control | dose: 25.0 mg/kg/injection, schedule: Q04DX002 (ip), vehicle: saline 95 % of control | dose: 50.0 mg/kg/injection, schedule: Q01DX001 (ip), vehicle: saline 104 % of control | dose: 50.0 mg/kg/injection, schedule: Q01DX009 (ip), vehicle: saline 97 % of control and 98 % of control | dose: 50.0 mg/kg/injection, schedule: Q04DX002 (ip), vehicle: saline 95 % of control | dose: 50.0 mg/kg/injection, schedule: Q04DX003 (ip), vehicle: saline 105 % of control | dose: 100.0 mg/kg/injection, schedule: Q01DX001 (ip), vehicle: saline 118 % of control and 92 % of control | [17] 98 % of control | dose: 100.0 mg/kg/injection, schedule: Q04DX002 (ip), vehicle: saline 95 % of control | [16] 108 % of control
